Data: patent US12221445B2, “Crystalline salts of 5-methyl-(6S)-tetrahydrofolic acid and amino ethyl esters” (MERCK PATENT GMBH, priority 2018, dated 2025)
Counter-ions that a name gives are not always drawn.

Legend:
[1] = at room temperature; calcium salt; cited from earlier work
[2] = at 50% to 60% relative humidity; listed as crystalline salt of 5-methyl-(6S)-tetrahydrofolic acid and L-methionine ethyl es
[3] = Kinetic solubility in water (one minute agitation, gravimetric evaluation); details: for kinetic solubility (mg of 5-methyl-(6S)-tetrahydrofolic acid per mL): purified/de-ionized water, room temperature, agitated one minute, expressed as 5-methyl-(6S)-tetrahydrofolic acid; for amount dissolved within one minute in 2.00 ml water: according to Example 6
Protocol: 42.3 mg of the anhydrous form of the crystalline salt of 5-methyl-(6S)-tetrahydrofolic acid and L-phenylalanine ethyl ester according to Example 4 was weighed into a 7 mL glass vial with a screw cap. 2.00 mL of purified/de-ionized water (for instance water for chromatography) was added to the solid using an adjustable volumetric pipette. The mixture was vigorously agitated at room temperature for one minute.
The solution was filtered by centrifugal filtration and 1.50 mL of the aqueous solution was transferred into a tared glass vial (about 10 mL volume). The water was evaporated in an air dryer at 40° C. for about 15 hours, then at 50° C. for about eight hours, subsequently drying was completed at 50° C. under vacuum (10 to 20 mbar) for about 13 hours. The solubility was determined by gravimetric evaluation of the solid residue.
2.00 mL of purified/de-ionized water (for instance water for chromatography) was added to the solid using an adjustable volumetric pipette. The mixture was vigorously agitated at room temperature for one minute. […] The suspension was filtered by centrifugal filtration and 1.50 mL of the aqueous solution was transferred into a tared glass vial (about 10 mL volume). The water was evaporated in an air dryer at 40° C. for about 15 hours, then at 50° C. for about eight hours, subsequently drying was completed at 50° C. under vacuum (10 to 20 mbar) for about 13 hours. The solubility was determined by gravimetric evaluation of the solid residue.

[4] = Dynamic water vapor sorption (DVS) experiment; format: physicochemical; details: FIG. 3; for change of relative sample mass during DVS test: RH program 50→20→75→50%, 5% per hour; for change in water content: relative humidity range between 20% and 75%
Protocol: DVS measurements are typically performed with an SPS11-100n “Sorptions Prufsystem” from ProUmid (formerly “Projekt Messtechnik”), August-Nagel-Str. 23, 89079 Ulm (Germany).
22 mg of the salt of 5-methyl-(6S)-tetrahydrofolic acid with L-phenylalanine ethyl ester Form B according to Example 2 was weighed into an aluminum sample pan for DVS measurement. A DVS measurement was performed. For relative humidity (RH) scans, change rates of 5% per hour were used. The sample pan was placed into the instrument and a defined relative humidity change program was started according to the following steps: • (1) Maintained RH for 2 hours at 50%, then • (2) scanned RH from 50→20% at a rate of 5% per hour and maintained RH at 20% for 10 hours, then • (3) scanned RH from 20→75% at a rate of 5% per hour and maintained RH at 75% for 10 hours, then • (4) scanned RH from 75→50% RH at a rate of 5% per hour and maintained RH at 50% for two hours.

Compound: 5-methyl-(6S)-tetrahydrofolic acid calcium salt [calcium salt (Form I)]
- aqueous solubility [1]: about 10 mg/ml

Compound: 5-methyl-(6S)-tetrahydrofolic acid L-methionine ethyl ester salt [Example 7]
- water content [2]: below 1%

Compound: 5-methyl-(6S)-tetrahydrofolic acid calcium salt [calcium salt (Form III)]
- aqueous solubility [1]: about 2.5 mg/ml

Compound: CCOC(=O)[C@@H](N)Cc1ccccc1.CCOC(=O)[C@@H](N)Cc1ccccc1.CN1c2c([nH]c(N)nc2=O)NC[C@@H]1CNc1ccc(C(=O)N[C@@H](CCC(=O)O)C(=O)O)cc1 [Example 4, 5-methyl-(6S)-tetrahydrofolic acid L-phenylalanine ethyl ester 1:2 salt]
- kinetic solubility (mg of 5-methyl-(6S)-tetrahydrofolic acid per mL) [3]: 11.3 mg per mL

Compound: CN1c2c(nc(N)[nH]c2=O)NC[C@@H]1CNc1ccc(C(=O)N[C@@H](CCC(=O)O)C(=O)O)cc1 [5-methyl-(6S)-tetrahydrofolic acid calcium salt, reference compound]
- amount dissolved within one minute in 2.00 ml water [3]: 9.0 mg
- kinetic solubility (mg of 5-methyl-(6S)-tetrahydrofolic acid per mL) [3]: 9.0 mg per mL
- solubility kinetic at 1 min ([3]; water, thermodynamic from solid): < 10000 µg/mL
- change of relative sample mass during DVS test [4]: about 3%
- change in water content [4]: about 3%

Compound: 5-methyl-(6S)-tetrahydrofolic acid L-methionine ethyl ester salt
- kinetic solubility expressed as 5-methyl-(6S)-tetrahydrofolic acid ([3]; at r.t., corresponds to mg/ml of 5-methyl-(6S)-tetrahydrofolic acid): greater than 18 mg/ml

Compound: 5-methyl-(6S)-tetrahydrofolic acid L-methionine ethyl ester salt [Example 8]
- water content [2]: about 5%

Compound: CCOC(=O)[C@@H](N)Cc1ccccc1.CCOC(=O)[C@@H](N)Cc1ccccc1.CN1c2c([nH]c(N)nc2=O)NC[C@@H]1CNc1ccc(C(=O)N[C@@H](CCC(=O)O)C(=O)O)cc1 [5-methyl-(6S)-tetrahydrofolic acid L-phenylalanine ethyl ester 1:2 salt]
- amount dissolved within one minute in 2.00 ml water [3]: 11.3 mg
- improvement of kinetic solubility versus calcium salt metastable Form I ([3]; versus the known (metastable Form I) of the calcium salt): about 50%
- change of relative sample mass during DVS test [4]: less than 0.3%
- change in water content [4]: less than 0.3%
